According to patent US6967196B1, “Sulfonamide compounds and uses thereof” (Bristol-Myers Squibb Company, priority 1999, dated 2005):
Counter-ions that a name gives are not always drawn. Like-named read-outs stand apart in the source and are kept apart here. Each block holds one molecule with its values, some of them ahead of it.

System: amyloid β production in transfected H4 (human neuroglioma) cells stably expressing APP constructs
Test: In vitro cell-based assay of inhibitors of amyloid β production (ELISA)
Conditions: amyloid β in medium by ELISA
In short: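 Plate wt/variant APP cells; ≥6 h later swap to medium + compound (10-100 μM screen); incubate ~16 h; sample medium; Aβ ELISA with C-terminal capture / N-terminal detection Abs; quantify vs Aβ standard curve.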

[1] = Homo sapiens, 16 h, transfected H4 cells stably expressing APP, approximately 16 hours incubation, Table B, read-out: ACTIVITY (IC50, inhibition of amyloid β production)
[2] = Homo sapiens, 16 h, transfected H4 cells stably expressing APP, approximately 16 hours incubation, read-out: ACTIVITY (IC50, inhibition of amyloid β production)
[3] = transfected H4 cells stably expressing APP constructs, approximately 16 hours incubation, read-out: ACTIVITY (IC50, inhibition of amyloid β production)
[4] = Homo sapiens, 16 h, transfected H4 cells stably expressing APP constructs, approximately 16 hours incubation, read-out: ACTIVITY (IC50, inhibition of amyloid β production)
[5] = transfected H4 cells stably expressing APP, approximately 16 hours incubation, read-out: ACTIVITY (IC50, inhibition of amyloid β production)
[6] = transfected H4 cells stably expressing APP, approximately 16 hours incubation, Table B, read-out: ACTIVITY (IC50, inhibition of amyloid β production)
[7] = Table B, transfected H4 cells stably expressing APP, approximately 16 hours incubation, read-out: ACTIVITY (inhibitory concentration IC50, inhibition of amyloid β production)
[8] = transfected H4 cells stably expressing APP, approx. 16 h incubation, read-out: ACTIVITY (IC50, inhibition of amyloid β production)
[9] = Homo sapiens, 16 h, transfected H4 cells expressing APP, approximately 16 hours incubation, read-out: ACTIVITY (IC50, inhibition of amyloid β production)

Molecule: CC1CS(=O)(=O)CCN1CCCCC[C@@H](C)N(c1cc(Cl)ccc1F)S(=O)(=O)c1ccc(Cl)cc1 (some centres unmarked) [Example 1275]
IC50 [3]: ≤ 0.025 µM

Molecule: tert-butyl 4-{3-[2-({[(4-chlorophenyl)sulfonyl]anilino}methyl)phenoxy]propyl}-1-piperazinecarboxylate hydrochloride [Example 1028]
IC50 [5]: > 0.5 µM

Molecule: CC(CC[C@@H](C)N(c1cc(Cl)ccc1Cl)S(=O)(=O)c1ccc(Cl)cc1)N1CCCC(S(C)(=O)=O)C1 (some centres unmarked) [Example 1140]
IC50 [3]: 0.1 to 0.5 µM

Molecule: O=S(=O)(c1ccc(Cl)cc1)N(Cc1ccccc1OCCCN1CCCC(O)C1)c1ccccc1 (centres unmarked) [Example 915, 4-chloro-N-{2-[3-(3-hydroxy-1-piperidinyl)propoxy]benzyl}-N-phenylbenzenesulfonamide hydrochloride]
IC50 [2]: > 0.5 µM

Molecule: CC(C)[C@H](NC(=O)CCC[C@@H](C)N(c1cc(Cl)ccc1F)S(=O)(=O)c1ccc(Cl)cc1)C(=O)O [Example 536, (R)-4-Chloro-N-(5-chloro-2-fluorophenyl)-N-[5-[N-(S)-[1-(carboxy)-2-methylpropyl]amino]-1-methyl-5-oxopentyl]benzenesulfonamide]
IC50 [6]: 0.1 to 0.5 µM

Molecule: COC(=O)C[S+]([O-])C[C@@H](C)N(c1cc(Cl)ccc1Cl)S(=O)(=O)c1ccc(Cl)cc1 (stereo partly drawn) [Example 178, Methyl(5R)-5-[(2,5-dichlorophenyl)[(4-chlorophenyl)sulfonyl]amino]-3-thiohexanoate,3 Oxide]
IC50 [7]: ≤ 0.025 µM

Molecule: N-{3-[2-(1-{[(4-chlorophenyl)sulfonyl]-2,5-difluoroanilino}ethyl)phenoxy]propyl}-2-naphthamide [Example 808]
IC50 [5]: 0.1 to 0.5 µM

Molecule: N-{3-[2-({[(4-chlorophenyl)sulfonyl]-2,5-difluoroanilino}methyl)phenoxy]propyl}-4-iodo-N-methylbenzamide [Example 765]
IC50 [8]: 0.1 to 0.5 µM

Molecule: (2E)-N-{4-[2-(1-{[(4-chlorophenyl)sulfonyl]-2,5-difluoroanilino}ethyl)phenoxy]butyl}-N-methyl-2-butenamide [Example 495]
IC50 [6]: 0.1 to 0.5 µM

Molecule: 2-((1R)-1-{[(4-chlorophenyl)-sulfonyl]-2,5-difluoroanilino}ethyl)benzyl benzyl(methyl)carbamate [Example 715]
IC50 [8]: 0.1 to 0.5 µM

Molecule: N-{3-[2-(1-{[(4-chlorophenyl)sulfonyl]-2,5-difluoroanilino}ethyl)phenoxy]propyl}-4-iodo-N-methylbenzamide [Example 719]
IC50 [8]: 0.1 to 0.5 µM

Molecule: N-{4-[2-(1-{[(4-chlorophenyl)sulfonyl]-2,5-difluoroanilino}ethyl)phenoxy]butyl}-N-ethylacrylamide [Example 739]
IC50 [8]: 0.1 to 0.5 µM

Molecule: N-{4-[2-(1-{[(4-chlorophenyl)sulfonyl]-2,5-difluoroanilino}ethyl)phenoxy]butyl}-N,2,4-trimethylpentanamide [Example 700]
IC50 [8]: 0.1 to 0.5 µM

Molecule: CC(C)C[C@H](NC(=O)CCCC[C@@H](C)N(c1cc(Cl)ccc1F)S(=O)(=O)c1ccc(Cl)cc1)C(=O)O [Example 1259, (R)-4-Chloro-N-(5-chloro-2-fluorophenyl)-N-[6-[N-(S)-[1-(carboxy)-3-methylbutyl]amino]-1-methyl-6-oxohexyl]benzenesulfonamide]
IC50 [3]: ≤ 0.025 µM

Molecule: O=S(=O)(/C=C/c1ccccc1)N(Cc1ccccc1OCCCN1CCCCC1)c1cc(Cl)ccc1Cl [Example 260, (E)-N-(2,5-dichlorophenyl)-2-phenyl-N-{2-[3-(1-piperidinyl)propoxy]benzyl}ethenesulfonamide hydrochloride]
IC50 [7]: 0.025 to 0.05 µM

Molecule: 3-chloro-N-{3-[2-(1-{[(4-chlorophenyl)sulfonyl]-2,5-difluoroanilino}ethyl)phenoxy]propyl}benzamide [Example 900]
IC50 [5]: > 0.5 µM

Now from value to molecule:

IC50 [1]: 0.05 to 0.1 µM
Molecule: C[C@H](c1ccc(F)cc1COCc1cccnc1)N(c1cc(F)ccc1F)S(=O)(=O)c1ccc(Cl)cc1 [Example 380, 4-chloro-N-(2,5-difluorophenyl)-N-((1R)-1-{4-fluoro-2-[(3-pyridinylmethoxy)methyl]phenyl}ethyl)benzenesulfonamide]

IC50 [1]: 0.05 to 0.1 µM
Molecule: C[C@H](c1ccc(F)cc1CCOC(=O)NCc1ccc(F)cc1)N(c1cc(F)ccc1F)S(=O)(=O)c1ccc(Cl)cc1 [Example 419, 2-[2-((1R)-1-{[(4-chlorophenyl)sulfonyl]-2,5-difluoroanilino}ethyl)-5-fluorophenyl]ethyl 4-fluorobenzylcarbamate]

IC50 [2]: > 0.5 µM
Molecule: COc1cccc(C(=O)N2CCCCC2CCOc2ccccc2CN(c2cc(F)ccc2F)S(=O)(=O)c2ccc(Cl)cc2)c1 (centres unmarked) [Example 909, 4-chloro-N-(2,5-difluorophenyl)-N-(2-{2-[1-(3-methoxybenzoyl)-2-piperidinyl]ethoxy}benzyl)benzenesulfonamide]

IC50 [4]: ≤ 0.025 µM
Molecule: C[C@H](CCCS(=O)(=O)NC1CCS(=O)(=O)C1)N(c1cc(Cl)ccc1Cl)S(=O)(=O)c1ccc(Cl)cc1 (stereo partly drawn) [Example 1214, 4-chloro-N-[2,5-dichlorophenyl]-N-[4-[[(tetrahydro-1,1-dioxido-3-thienyl)amino]sulfonyl]-1(R)-methylbutyl]benzenesulfonamide]

IC50 [4]: 0.1 to 0.5 µM
Molecule: C[C@H](CCCNC(=O)OCc1ccccc1)N(c1cc(Cl)ccc1Cl)S(=O)(=O)c1ccc(Cl)cc1 [Example 1155, 4-chloro-N-(2,5-dichlorophenyl)-N-[4-[[(benzoxy)carbonyl]amino]-1-methylbutyl]benzenesulfonamide]

IC50 [6]: 0.1 to 0.5 µM
Molecule: C[C@H](c1ccc(F)cc1CCCC(=O)NC1CCCCC1)N(c1cc(F)ccc1F)S(=O)(=O)c1ccc(Cl)cc1 [Example 496, 4-[2-((1R)-1-{[(4-chlorophenyl)sulfonyl]-2,5-difluoroanilino}ethyl)-5-fluorophenyl]-N-cyclohexylbutanamide]

IC50 [9]: 0.1 to 0.5 µM
Molecule: C[C@H](C(=O)NCc1cccnc1)N(c1cc(Cl)ccc1F)S(=O)(=O)c1ccc(Cl)cc1 [Example 1332]

IC50 [2]: 0.1 to 0.5 µM
Molecule: O=S(=O)(c1ccc(Cl)cc1)N(Cc1ccccc1OCCCN1CCC2(CC1)OCCO2)c1ccccc1 [Example 877, 4-chloro-N-{2-[3-(1,4-dioxa-8-azaspiro[4.5]dec-8-yl)propoxy]benzyl}-N-phenylbenzenesulfonamide]

IC50 [3]: 0.1 to 0.5 µM
Molecule: COC(=O)CS(=O)(=O)CC[C@@H](C)N(c1cc(Cl)ccc1Cl)S(=O)(=O)c1ccc(Cl)cc1 [Example 1191, methyl(6R)-6-[(2,5-dichlorophenyl)-[(4-chlorophenyl)sulfonyl]-amino]-3-thioheptanoic acid, 3,3-dioxide]

IC50 [2]: > 0.5 µM
Molecule: C[C@H](c1ccccc1OCCCN1CCCCC1)N(c1cc(F)ccc1F)S(=O)(=O)c1ccc(Cl)cc1 [Example 1061, 4-chloro-N-(2,5-difluorophenyl)-N-((1R)-1-{2-[3-(1-piperidinyl)propoxy]phenyl}ethyl)benzenesulfonamide hydrochloride]

IC50 [3]: 0.1 to 0.5 µM
Molecule: COC(=O)C[S+]([O-])CC[C@@H](C)N(c1cc(Cl)ccc1Cl)S(=O)(=O)c1ccc(Cl)cc1 (stereo partly drawn) [Example 1193, methyl(6R)-6-[(2,5-dichlorophenyl)-[(4-chlorophenyl)sulfonyl]-amino]-3-thioheptanoic acid, 3-oxide]

IC50 [2]: > 0.5 µM
Molecule: O=[N+]([O-])c1ccc(CN(Cc2ccccc2OCCCN2CCCCC2)S(=O)(=O)c2ccc(Cl)cc2)cc1 [Example 998, 4-chloro-N-(4-nitrobenzyl)-N-{2-[3-(1-piperidinyl)propoxy]benzyl}benzenesulfonamide hydrochloride]

IC50 [9]: 0.1 to 0.5 µM
Molecule: C[C@H](C(=O)NCC1CCCO1)N(c1cc(Cl)ccc1F)S(=O)(=O)c1ccc(Cl)cc1 (some centres unmarked) [Example 1321]
